Experimental findings from patent publication US11578079B2, “SUMO inhibitor compounds and uses thereof” (CITY OF HOPE, priority 2018, dated 2023) are described below.

The test system of one test is c-Myc. The test is described as follows: c-Myc activity (Table I, biological activities). Also noted: key: + (less active); ++ (active); +++ (most active).
For another test, the target named is T1, SUMO (Homo sapiens, UniProt Q9UBT2).
T1 sequence (Q9UBT2 1-640): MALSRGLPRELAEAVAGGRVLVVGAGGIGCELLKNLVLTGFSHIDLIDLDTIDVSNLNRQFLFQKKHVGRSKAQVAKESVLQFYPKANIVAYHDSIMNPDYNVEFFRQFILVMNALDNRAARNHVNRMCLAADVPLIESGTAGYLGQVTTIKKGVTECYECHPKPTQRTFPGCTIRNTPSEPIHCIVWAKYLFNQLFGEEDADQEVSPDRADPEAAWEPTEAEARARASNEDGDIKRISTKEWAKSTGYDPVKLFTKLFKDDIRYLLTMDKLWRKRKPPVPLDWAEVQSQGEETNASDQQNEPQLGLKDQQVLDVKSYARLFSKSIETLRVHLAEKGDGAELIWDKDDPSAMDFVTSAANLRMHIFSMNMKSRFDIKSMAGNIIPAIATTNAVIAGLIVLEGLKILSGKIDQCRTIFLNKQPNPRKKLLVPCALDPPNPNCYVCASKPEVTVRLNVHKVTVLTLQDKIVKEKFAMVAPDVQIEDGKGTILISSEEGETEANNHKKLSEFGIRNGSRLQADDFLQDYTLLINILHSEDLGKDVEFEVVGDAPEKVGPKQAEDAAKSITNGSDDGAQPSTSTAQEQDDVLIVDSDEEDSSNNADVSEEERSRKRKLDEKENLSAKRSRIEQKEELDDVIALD
T1 sequence (Q9UBE0 1-346 partner): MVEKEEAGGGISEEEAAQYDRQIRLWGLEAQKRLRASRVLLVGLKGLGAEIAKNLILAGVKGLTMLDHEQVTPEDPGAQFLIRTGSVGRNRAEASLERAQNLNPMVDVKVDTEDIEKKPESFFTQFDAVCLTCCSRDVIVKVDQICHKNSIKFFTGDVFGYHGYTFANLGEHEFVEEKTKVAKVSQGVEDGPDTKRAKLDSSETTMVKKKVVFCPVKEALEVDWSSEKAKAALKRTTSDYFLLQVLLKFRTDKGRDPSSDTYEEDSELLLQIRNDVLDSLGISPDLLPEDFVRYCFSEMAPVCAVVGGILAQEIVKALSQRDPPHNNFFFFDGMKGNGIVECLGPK
Kind of test: SUMO activity (Table I, biological activities). Set-up: key: + (less active); ++ (active); +++ (most active). Format: biochemical.

Each structure is given as a SMILES string.

With `COC(=O)C1=C(C(=O)NCCN(C)C)C2C=CC1(C(Cc1ccccc1)Nc1ccc(F)cc1F)O2` (stereo not drawn) [Compound 409], the c-Myc result in the test with c-Myc is given as “++”. Also, the SUMO entry on SUMO is given as “++”.

As for `COC(=O)C1=C(C(=O)NC2CN(C)C2)C2C=CC1(C(Cc1ccccc1)Nc1ccccc1)O2` (stereo not drawn) [Compound 492], the c-Myc entry in the test on c-Myc was “+”. The SUMO entry at SUMO is listed as “+++”.

On to `COC(=O)C1=C(C(=O)NC2CCN(C(=O)c3ccccn3)CC2)C2C=CC1(C(Cc1ccccc1)Nc1ccccc1)O2` (stereo not drawn) [Compound 391], for which the c-Myc entry in the test with c-Myc was “+”. Besides, the SUMO result at SUMO is listed as “++”.

`CCOC(=O)C1=C(C(F)(F)F)C2(C(Cc3ccccc3)Oc3ccccc3)C=CC1O2` (stereo not drawn) [Compound 513]: the c-Myc result with c-Myc was “++”. Further, the SUMO entry on SUMO is reported as “++”.

As for `CCN(CC)CCNC(=O)C1=C(C(=O)OC)C2(C(Cc3ccc(F)cc3)Nc3cc(F)cc(Cl)c3)C=CC1O2` (stereo not drawn) [Compound 453], the c-Myc result in the test on c-Myc was “+”. Moreover, the SUMO entry on SUMO was “++”.

As to `COC(=O)C1=C(C(=O)Nc2ccc3c(c2)OCO3)C2C=CC1(C(Cc1ccccc1)Nc1ccccc1)O2` (stereo not drawn) [Compound 309], in the test on c-Myc, the c-Myc entry is “+”. In addition, the SUMO entry on SUMO is listed as “+”.

Regarding `COC(=O)C1=C(C(=O)NC2CCN(C)CC2)C2C=CC1(C(Cc1ccccc1)Nc1cccc(Oc3ccccc3)c1)O2` (stereo not drawn) [Compound 320], the c-Myc entry in the test with c-Myc is recorded as “++”. Also, the SUMO entry on SUMO is recorded as “+++”.

Consider `CCOC(=O)C1=C(C(=O)Nc2ccc(Cl)cc2)C2C=CC1(C(Nc1ccccc1)c1ccc(CN3CCOCC3)cc1)O2` (stereo not drawn) [Compound 606], for which the c-Myc entry with c-Myc is recorded as “+”. In addition, the SUMO entry at SUMO was “++”.

Regarding `COC(=O)C1=C(C(=O)Nc2cccc(F)c2)C2C=CC1(C(Cc1ccccc1)Nc1ccccc1)O2` (stereo not drawn) [Compound 276], in the test with c-Myc, the c-Myc result was “+”. Besides, the SUMO result at SUMO was “++”.

Turning to `CCCCC(Nc1cc(F)cc(F)c1)C12C=CC(O1)C(C(=O)NC1CCN(C)CC1)=C2C(=O)OC` (stereo not drawn) [Compound 266], in the test on c-Myc, the c-Myc result was “+”. Further, the SUMO result at SUMO is on record as “+++”.

As for `COC(=O)C1=C(C(=O)Nc2c(C)cccc2C)C2C=CC1(C(Cc1ccccc1)Nc1ccccc1)O2` (stereo not drawn) [Compound 354], the c-Myc entry with c-Myc is on record as “+”. Moreover, the SUMO entry at SUMO was “+”.

With `C=CCCC(Nc1ccccc1)C12C=CC(O1)C(C(=O)OC)=C2C(=O)OC` (stereo not drawn) [Compound 181], the c-Myc entry in the test with c-Myc is on record as “+”. Moreover, at SUMO, the SUMO result is recorded as “++”.

With `COCCNC(=O)C1=C(C(=O)OC)C2(C(Cc3ccccc3)Nc3ccccc3)C=CC1O2` (stereo not drawn) [Compound 403], in the test with c-Myc, the c-Myc entry was “+”. For the same molecule, the SUMO entry on SUMO is given as “++”.

Consider `CCN(CC)CCNC(=O)C1=C(C(=O)OC)C2(C(Cc3ccccc3)Nc3c(F)cccc3F)C=CC1O2` (stereo not drawn) [Compound 433], for which the c-Myc result in the test with c-Myc was “+”. On SUMO, the SUMO entry is reported as “++”.

Regarding `COC(=O)C1=C(C(=O)NCCN(C)C)C2C=CC1(C(Cc1ccccc1)Nc1c(F)cccc1F)O2` (stereo not drawn) [Compound 431], the c-Myc result in the test with c-Myc is listed as “+”. Further, the SUMO result on SUMO is on record as “++”.

For `CCN(CC)CCNC(=O)C1=C(C(=O)OC)C2(C(Cc3ccccc3)Nc3cc(F)cc(Cl)c3)C=CC1O2` (stereo not drawn) [Compound 376], the c-Myc result in the test on c-Myc was “++”. In addition, on SUMO, the SUMO result is “+++”.

`COC(=O)C1=C(C(=O)NCCN(C)C)C2C=CC1(C(Cc1ccccc1)Nc1cccc(F)c1)O2` (stereo not drawn) [Compound 420]: the c-Myc entry with c-Myc is reported as “++”. Moreover, on SUMO, the SUMO result is listed as “++”.

Turning to `CC#CC(Nc1ccccc1)C12C=CC(O1)C(C(=O)OC)=C2C(=O)OC` (stereo not drawn) [Compound 172], the c-Myc result with c-Myc is reported as “++”. For the same molecule, at SUMO, the SUMO entry is “++”.

Turning to `Cc1ccc(S(=O)(=O)C2=CC3(C4OCCO4)C=CC2O3)cc1` (stereo not drawn) [Compound 516], the c-Myc entry in the test with c-Myc was “+”. Further, the SUMO result at SUMO is listed as “++”.

Consider `COC(=O)C1=C(C(=O)NC2CCN(C)CC2)C2(C(Cc3ccccc3)Nc3cc(F)cc(F)c3)C=CC1O2` (stereo not drawn) [Compound 311], for which the c-Myc entry in the test on c-Myc was “++”. In addition, at SUMO, the SUMO entry is recorded as “++”.

On to `COC(=O)C1=C(C(=O)NC2CCN(C(=O)c3ccc(F)cc3)CC2)C2CCC1(C(Cc1ccccc1)Nc1ccccc1)O2` (stereo not drawn) [Compound 370], for which the c-Myc result in the test on c-Myc was “+”. Besides, the SUMO result on SUMO is reported as “+”.
